Test results taken from ChEMBL document CHEMBL1157385, “(Iso)-quinoline alkaloids from fungal fruiting bodies of Cortinarius subtortus” (J Nat Prod, 2008).

Tests used:
[1] = tested on: Radical scavenging activity; assay: Antioxidant activity assessed as DPPH free radical scavenging activity at 1 mM; format: functional
Colletotrichum coccodes = assay: Growth inhibition of Colletotrichum coccodes (Wallr.) S. Hughes at 100 uM after 6 days; format: functional, organism-based; settings: 144 h

Row | SMILES | Activity [1] [%] | other results
1 | O=C1O[C@H]([C@@H](O)CO)C(O)=C1O [ASCORBIC ACID] |  | EC50 [1]: 45 µM
2 | Oc1cccc2cccnc12 [QUINOSOL] |  | EC50 (Colletotrichum coccodes): 0.19 µM
3 | O=C(O)c1cc(O)cc2cccnc12 | 15 | inhibition at 100 µM (Colletotrichum coccodes): 71%
4 | Nc1ccnc2c(C(=O)O)cc(O)cc12 | 12 | 
5 | O=C(O)c1cc(O)cc2c(=O)[nH]ccc12 | 21 | 
